# How the values were obtained:
# IL-1β = test: PBMC assay: IL-1β release after LPS stimulation; format: cell-based; details: human PBMCs, 30 min preincubation, 100 ng/ml LPS for 6 hrs, supernatant, MSD technology
# Procedure: (§1) Peripheral venous blood was collected from healthy individuals and human peripheral blood mononuclear cells (PBMCs) were isolated from blood by Ficoll-Histopaque (Sigma-Aldrich, A0561) density gradient centrifugation. After isolation, PBMCs were stored in liquid nitrogen for later use. Upon thawing, PBMC cell viability was determined in growth medium (RPMI media supplemented with 10% fetal bovine serum, 1% Pen-Strep and 1% L-glutamine). Compounds were spotted in a 1:3 serial dilution in DMSO and diluted to the final concentration in 30 μl medium in 96 well plates (Falcon, 353072). PBMCs were added at a density of 7.5×10^4 cells per well and incubated for 30 min in a 5% CO2 incubator at 37° C. LPS stimulation was performed by addition of 100 ng/ml LPS (final concentration, Invivogen, tirl-smlps) for 6 hrs followed by collection of cellular supernatant and the analysis of IL-1β (μM) and TNF cytokines levels (μM) via MSD technology according to manufacturers' guidelines (MSD, K 151A0H).
# (§2) The IC50 values (for IL-1β) and EC50 values (TNF) were obtained on compounds of the invention/examples, and are depicted in the following table: […]
# TNF = test: PBMC assay: TNF cytokine levels after LPS stimulation; format: cell-based; details: human PBMCs, 30 min preincubation, 100 ng/ml LPS for 6 hrs, supernatant, MSD technology
# Procedure: as §1, §2
"IC50 (IL-1β; Homo sapiens, PBMC)","EC50 (TNF; Homo sapiens, PBMC)",IC50 (IL-1β),EC50 (TNF),Structure (SMILES)
520 nM,10600 nM,,,CCc1nn(CC(=O)N[C@H]2C[C@@](C)(O)C2)c(=O)c2ccc(C(C)C)nc12 [Compound 1]
370 nM,,,,CCc1nn(CC(=O)N[C@H]2C[C@@](C)(O)C2)c(=O)c2ccc(C3CC3)nc12 [Compound 4]
780 nM,17800 nM,,,CCc1ccc2c(=O)n(CC(=O)N[C@H]3C[C@@](C)(O)C3)nc(CC)c2n1 [Compound 6]
780 nM,> 20000 nM,,,CC(C)c1nn(CC(=O)NC2CCOCC2)c(=O)c2ccc(C(F)(F)F)nc12 [Compound 12]
50 nM,> 20000 nM,,,CC(C)c1nn(CC(=O)N[C@H]2C[C@@](C)(O)C2)c(=O)c2ccc(C(F)(F)F)nc12 [Compound 14]
390 nM,> 20000 nM,,,CC(C)c1nn(CC(=O)Nc2ccc3nccn3c2)c(=O)c2ccc(C(F)(F)F)nc12 [Compound 15]
330 nM,> 20000 nM,,,CC(C)c1nn(CC(=O)Nc2ccc(=O)n(C)c2)c(=O)c2ccc(C(F)(F)F)nc12 [Compound 16]
480 nM,16600 nM,,,Cc1cc(NC(=O)Cn2nc(C(C)C)c3nc(C(F)(F)F)ccc3c2=O)ccn1 [Compound 17]
410 nM,12600 nM,,,CC(C)c1nn(CC(=O)Nc2ccnnc2)c(=O)c2ccc(C(F)(F)F)nc12 [Compound 18]
60 nM,11800 nM,,,CC(C)c1nn(CC(=O)Nc2cncnc2)c(=O)c2ccc(C(F)(F)F)nc12 [Compound 19]

# More lines, now with the values behind:
Structure (SMILES),"IC50 (IL-1β; Homo sapiens, PBMC)","EC50 (TNF; Homo sapiens, PBMC)",IC50 (IL-1β),EC50 (TNF)
CCc1nn(CC(=O)Nc2ccncn2)c(=O)c2ccc(C(C)C)nc12 [Compound 2],1490 nM,> 20000 nM,,
CCc1nn(CC(=O)Nc2ccncn2)c(=O)c2ccc(C3CC3)nc12 [Compound 3],4490 nM,> 20000 nM,,
CCc1nn(CC(=O)Nc2ccc3nncn3c2)c(=O)c2ccc(C3CC3)nc12 [Compound 5],320 nM,12900 nM,,
CCc1nn(CC(=O)Nc2ccc3nncn3c2)c(=O)c2ccc(OC)nc12 [Compound 7],6770 nM,> 20000 nM,,
CC(C)c1nn(CC(=O)Nc2ccc3nncn3c2)c(=O)c2ccc(C(C)(F)F)nc12 [Compound 8],120 nM,17000 nM,,
CN(C)c1nn(CC(=O)Nc2ccc3nncn3c2)c(=O)c2ccc(C(F)(F)F)nc12 [Compound 9],320 nM,> 20000 nM,,
CN(C)c1nn(CC(=O)Nc2ccc3nncn3c2)c(=O)c2ccc(C(C)(F)F)nc12 [Compound 10],300 nM,> 20000 nM,,
"CC(C)c1nn(CC(=O)Nc2ccc3cnn(C(=O)OC(C)(C)C)c3c2)c(=O)c2ccc(C(F)(F)F)nc12 [Compound 11, tert-butyl 6-(2-(8-isopropyl-5-oxo-2-(trifluoromethyl)pyrido[2,3-d]pyridazin-6(5H)-yl)acetamido)-1H-indazole-1-carboxylate]",520 nM,> 20000 nM,,
CC(C)c1nn(CC(=O)Nc2ccc3nncn3c2)c(=O)c2ccc(C(F)(F)F)nc12 [Compound 13],100 nM,> 20000 nM,,
"CC(C)c1nn(CC(=O)Nc2ccc3nncn3n2)c(=O)c2ccc(C(F)(F)F)nc12 [Compound 20, N-([1,2,4]triazolo[4,3-b]pyridazin-6-yl)-2-(8-isopropyl-5-oxo-2-(trifluoromethyl)pyrido[2,3-d]pyridazin-6(5H)-yl)acetamide]",2930 nM,> 20000 nM,,
CC(C)c1nn(CC(=O)Nc2ccc3nncn3n2)c(=O)c2ccc(C(C)(F)F)nc12 [Compound 21],70 nM,2870 nM,,
CN(C)c1nn(CC(=O)Nc2ccc3nncn3n2)c(=O)c2ccc(C(F)(F)F)nc12 [Compound 22],,,150 nM,5860 nM
CN(C)c1nn(CC(=O)Nc2ccc3nncn3n2)c(=O)c2ccc(C(F)(F)F)nc12 [Compound 23],,,340 nM,> 20000 nM
CN(C)c1nn(CC(=O)Nc2ccc3nncn3n2)c(=O)c2ccc(C(C)(F)F)nc12 [Compound 24],,> 20000 nM,300 nM,
CN(C)c1nn(CC(=O)Nc2ccc3nncn3n2)c(=O)c2ccc(C(C)(F)F)nc12 [Compound 25],,,750 nM,> 20000 nM
"CC(C)c1nn(CC(=O)Nc2ccc3cn[nH]c3c2)c(=O)c2ccc(C(F)(F)F)nc12 [Compound 26, N-(1H-indazol-6-yl)-2-(8-isopropyl-5-oxo-2-(trifluoromethyl)pyrido[2,3-d]pyridazin-6(5H)-yl)acetamide]",170 nM,> 20000 nM,,
